Here are results for one substance from article PMC8125234, “Cardiolipin Stabilizes and Increases Catalytic Efficiency of Carnitine Palmitoyltransferase II and Its Variants S113L, P50H, and Y479F” (International Journal of Molecular Sciences, 2021).

Numbering of substitutions follows the chain as printed.

For experiment [1], the target named is T1, CPT II variant P50H (Homo sapiens, UniProt P23786, P50H).
T1 construct: made in house; host or cells: Escherichia coli BL21Gold DE
T1 sequence (P23786 26-658 P50H): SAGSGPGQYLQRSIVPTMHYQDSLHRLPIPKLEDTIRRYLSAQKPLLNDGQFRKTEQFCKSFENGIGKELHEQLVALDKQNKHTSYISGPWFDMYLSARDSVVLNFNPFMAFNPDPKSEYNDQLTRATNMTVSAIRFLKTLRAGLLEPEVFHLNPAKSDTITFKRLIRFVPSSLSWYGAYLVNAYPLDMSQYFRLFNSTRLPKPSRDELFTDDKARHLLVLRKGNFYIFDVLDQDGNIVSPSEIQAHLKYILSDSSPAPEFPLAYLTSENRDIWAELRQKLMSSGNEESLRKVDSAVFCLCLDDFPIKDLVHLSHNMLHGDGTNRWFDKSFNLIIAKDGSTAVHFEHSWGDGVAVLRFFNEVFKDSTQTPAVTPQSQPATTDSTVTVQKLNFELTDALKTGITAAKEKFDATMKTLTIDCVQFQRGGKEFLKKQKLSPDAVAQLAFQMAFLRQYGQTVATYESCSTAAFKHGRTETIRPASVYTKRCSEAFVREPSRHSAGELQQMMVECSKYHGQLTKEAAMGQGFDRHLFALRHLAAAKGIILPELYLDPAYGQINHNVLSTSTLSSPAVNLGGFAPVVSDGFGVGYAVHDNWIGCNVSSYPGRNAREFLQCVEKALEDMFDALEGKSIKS
The experiment in a line: nanoDSF protein stability in presence of CL or β-OG. In kind it is binding. Here is the method:
(§1) NanoDSF is a standard method for the investigation of the folding/unfolding of proteins and the interaction of proteins with effectors/ligands/substrates
(§2) The protein stability was investigated applying nano differential scanning fluorimetry (nanoDSF) using a protein concentration of 1 mg/mL in assay buffer. […] The heating rate has been set to 1 °C per min. A heating ramp from 15 to 95 °C was determined. The nanoDSF data were obtained using a Prometheus NT.48 device. First derivatives were calculated using PR.ThermControl software (NanoTemper Technologies GmbH, Munich, Germany). Experiments were performed at least three times independently as double determination.

The target in experiment [2] is T2, CPT II variant Y479F (Homo sapiens, UniProt P23786, Y479F).
T2 construct: made in house; host or cells: Escherichia coli BL21Gold DE
T2 sequence (P23786 26-658 Y479F): T1 sequence (P23786 26-658 P50H) with H25P, Y454F
The experiment is described as above. In kind it is binding. On the procedure:
as §1, §2

In experiment [3] the target is T3, CPT II WT (Homo sapiens, UniProt P23786).
T3 construct: made in house; host or cells: Escherichia coli BL21Gold DE
T3 sequence (P23786 26-658): T1 sequence (P23786 26-658 P50H) with H25P
The experiment can be described thus: Lipid binding assay (membrane lipid strips). The settings on record: 0.4 mg enzyme, 100 pmol lipid spots. Here is the method:
Direct interaction of CPT II WT and variants with phospholipids of the mitochondrial membrane was assessed using membrane lipid strips (Echelon Biosciences, Salt Lake City, Utah, USA). The membrane was spotted with 100 pmol of various cell membrane lipids. The assay was performed following manufacturer’s instructions with some modifications explained in the following. At first, the membrane was washed twice in phosphate buffered saline (PBS). After 1 h incubation with blocking solution (3% BSA fatty acid-free in PBS) at room temperature, the membrane was incubated with purified CPT II WT or variant (final amount 0.4 mg protein) for 2 h at 4 °C. After three washing steps, a-His-Probe (H3) mouse monoclonal antibody (Santa Cruz Biotech, Santa Cruz, CA, USA, 1:1000 dilution in PBS containing 3% BSA) was added to the membrane over night at 4 °C. The membrane was washed three times with PBS and incubated with mouse IgG horseradish peroxidase-linked whole antibody (from sheep, Amersham, Little Chalfont, Buckinghamshire, UK) for 1 h at 4 °C. The interaction was visualized by ECL Western blotting detection reagents (Amersham, Little Chalfont, Buckinghamshire, UK).

Setting [4] is: reference TM of WT in buffer (ΔTM = 0 °C).

On to Cardiolipin [CL], for which the “Increase of ΔTM-value due to the addition of CL” value in experiment [1] (0.25 mM CL) was “+13 °C”; in experiment [2] (0.25 mM CL), “+10 °C”. Further, the “TM in Buffer with 0.25 mM CL” value in experiment [1] (1 mg/mL protein) was found to be 40.2 ± 0.7 °C; in experiment [2] (1 mg/mL protein), 45.9 ± 1.0 °C. In addition, the figures for the “∆TM in Buffer with 0.25 mM CL” value in experiment [1] (setting [4]) and in experiment [2] (setting [4]) were 3.3 ± 0.1 °C and 9.0 ± 0.1 °C, respectively. In addition, the “Signal for interaction on membrane lipid strips” value in experiment [3] was “clearly proven”.
